Results from US20250367240A1, “DERIVATION OF GLUCOSE-RESPONSIVE INSULIN-SECRETING CELLS AND ORGANOIDS FROM HUMAN STOMACH CELLS AND THEIR USE TO TREAT DIABETES” (CORNELL UNIVERSITY, priority 2022, published 2025).
Entries after “also recorded” stand apart in the source; their conditions may differ.

Legend:
Assay type in all cases: cell-based, human
GINS organoids [1] = test: Static glucose-stimulated insulin secretion (GSIS); conditions: day-18 organoids donor #6; 10 nM glibenclamide or 0.5 mM diazoxide
Procedure: Ten to twenty GINS organoids were sampled for each group. Organoids were washed with RPMI-1640 no nutrient medium (RPMIN, MyBioSource, MBS652918), and equilibrated in 3.3 mM glucose RPMIN for 2 hours. Organoids were incubated in low-glucose RPMIN for 1 hour, and supernatant was collected. Organoids were then incubated in high-glucose RPMIN for 1 hour, and supernatant was collected. For sequential glucose challenge, organoids were washed 2 times in RPMIN prior to the next stimulation. Secreted insulin was measured using the Stellux Chemi Human Insulin ELISA (ALPCO Diagnostics, 80-INSHU-CH10).

Ngn3ER/PM-hGSCs = test: Supplement screen to formulate serum-free medium for GINS differentiation; conditions: day-7 post differentiation; for INS mRNA levels: single supplement in serum-free basal medium
Procedure: Ngn3ER/PM-hGSCs were seeded 5 days prior to differentiation in 96-well plate. To start differentiation, 1 μM 4-OH-TAM was added and incubated for 2 days. The culture medium was then changed to serum-free basal medium with one supplement and Doxycycline to activate Pdx1-Mafa expression. The basal serum-free medium for screens was prepared as follows: advanced DMEM/F12 (Thermo Fisher Scientific, 12634010) was supplemented with 10 mM HEPES (Thermo Fisher Scientific, 15-630-080), 1× GlutaMAX (Thermo Fisher Scientific, 35050061), 1× B-27 (Themo Fisher Scientific, 17504044), 1× N-2 (Thermo Fisher Scientific, 17502048), 25 μM Primocin, and 500 μM N-Acetyl-L-Cysteine (NAC) (Sigma-Aldrich, A9165). Seven days after supplement treatment, the following were (1) spontaneous clustering of nascent GINS cells by live imaging of mCherry^+ cells, and (2) qPCR of INS mRNA levels. Then multiple b-cell markers with qPCR on samples treated with Nicotinamide, Y-27632 and A8301 were analyzed.

GINS organoids [2] = test: Dynamic GSIS with perifusion; conditions: day-21 organoids, two donors; 100 ng/mL Liraglutide in 20 mM glucose; 30 mM KCl in 2 mM glucose
Procedure: Twenty GINS organoids were sampled for each group. Organoids were washed with RPMIN and equilibrated in 1 mM glucose RPMIN for 2 hours at 37° C. incubator. The assay was performed in RPMIN on a temperature-controlled (37° C.) perifusion system (Biorep Technologies). Organoids were loaded in chambers and perfused at a flow rate of 100 μL/min in the following steps: (1) 48 min in 1 mM glucose, (2) 24 min in 2 mM glucose. (3) 36 min in 20 mM glucose, (4) 24 min in 20 mM glucose with 100 ng/mL Liraglutide (Cayman, 24727), (5) 48 min in 2 mM glucose, (6) 20 min in 2 mM glucose with 30 mM KCl. Secreted insulin was measured using the Stellux Chemi Human Insulin ELISA.

CC1=NS(=O)(=O)c2cc(Cl)ccc2N1 [Diazoxide]
insulin secretion response of GINS organoids to the drug (GINS organoids [1]): responded

C[C@@H](N)[C@H]1CC[C@H](C(=O)Nc2ccncc2)CC1.Cl.Cl [Y-27632, trans-4-[(1R)-1-aminoethyl]-N-4-pyridinyl-Cyclohexanecarboxamide, dihydrochloride]
INS mRNA levels (Ngn3ER/PM-hGSCs; vs no supplement control, dihydrochloride): significantly promoted; also recorded: significantly up-regulated

NC(=O)c1cccnc1 [Nicotinamide, 3-pyridinecarboxamide]
INS mRNA levels (Ngn3ER/PM-hGSCs; vs no supplement control): significantly promoted; also recorded: significantly up-regulated

COc1ccc(Cl)cc1C(=O)NCCc1ccc(S(=O)(=O)NC(=O)NC2CCCCC2)cc1 [Glibenclamide]
insulin secretion response of GINS organoids to the drug (GINS organoids [1]): responded

Cc1cccc(-c2nn(C(=S)Nc3ccccc3)cc2-c2ccnc3ccccc23)n1 [A8301, 3-(6-methyl-2-pyridinyl)-N-phenyl-4-(4-quinolinyl)-1H-pyrazole-1-carbothioamide]
spontaneous aggregation (clustering) of nascent GINS cells (Ngn3ER/PM-hGSCs; mCherry live imaging): stimulated; also recorded: most observable clustering effect
expression of several key b-cell transcription factors (Ngn3ER/PM-hGSCs; qPCR, vs no supplement control): stimulated

[Cl-].[K+] [KCl]
insulin secretion response of GINS cells to the agent, dynamic GSIS (GINS organoids [2]): responded robustly
